Data as given in US12662479B2 (Foghorn Therapeutics Inc., priority 2020, dated 2026).

How the values were obtained:
[1] = molecular target: T1, HiBit-BRG1 fusion protein (Homo sapiens, UniProt P51532); experiment: HiBiT-BRG1 cell-based degradation assay (Nano-Glo HiBiT Lytic Detection, 24 h); conditions: HeLa cells expressing HiBit-BRG1 and LgBit; for DC50: read-out: BRG1 HiBit Degradation IC50; for Dmax: HeLa, top dose 30 μM, read-out: BRG1 HiBit Degradation Maximum measured
T1 construct: expressed in transfected cells
T1 sequence (P51532 whole entry, the tested form may be a part): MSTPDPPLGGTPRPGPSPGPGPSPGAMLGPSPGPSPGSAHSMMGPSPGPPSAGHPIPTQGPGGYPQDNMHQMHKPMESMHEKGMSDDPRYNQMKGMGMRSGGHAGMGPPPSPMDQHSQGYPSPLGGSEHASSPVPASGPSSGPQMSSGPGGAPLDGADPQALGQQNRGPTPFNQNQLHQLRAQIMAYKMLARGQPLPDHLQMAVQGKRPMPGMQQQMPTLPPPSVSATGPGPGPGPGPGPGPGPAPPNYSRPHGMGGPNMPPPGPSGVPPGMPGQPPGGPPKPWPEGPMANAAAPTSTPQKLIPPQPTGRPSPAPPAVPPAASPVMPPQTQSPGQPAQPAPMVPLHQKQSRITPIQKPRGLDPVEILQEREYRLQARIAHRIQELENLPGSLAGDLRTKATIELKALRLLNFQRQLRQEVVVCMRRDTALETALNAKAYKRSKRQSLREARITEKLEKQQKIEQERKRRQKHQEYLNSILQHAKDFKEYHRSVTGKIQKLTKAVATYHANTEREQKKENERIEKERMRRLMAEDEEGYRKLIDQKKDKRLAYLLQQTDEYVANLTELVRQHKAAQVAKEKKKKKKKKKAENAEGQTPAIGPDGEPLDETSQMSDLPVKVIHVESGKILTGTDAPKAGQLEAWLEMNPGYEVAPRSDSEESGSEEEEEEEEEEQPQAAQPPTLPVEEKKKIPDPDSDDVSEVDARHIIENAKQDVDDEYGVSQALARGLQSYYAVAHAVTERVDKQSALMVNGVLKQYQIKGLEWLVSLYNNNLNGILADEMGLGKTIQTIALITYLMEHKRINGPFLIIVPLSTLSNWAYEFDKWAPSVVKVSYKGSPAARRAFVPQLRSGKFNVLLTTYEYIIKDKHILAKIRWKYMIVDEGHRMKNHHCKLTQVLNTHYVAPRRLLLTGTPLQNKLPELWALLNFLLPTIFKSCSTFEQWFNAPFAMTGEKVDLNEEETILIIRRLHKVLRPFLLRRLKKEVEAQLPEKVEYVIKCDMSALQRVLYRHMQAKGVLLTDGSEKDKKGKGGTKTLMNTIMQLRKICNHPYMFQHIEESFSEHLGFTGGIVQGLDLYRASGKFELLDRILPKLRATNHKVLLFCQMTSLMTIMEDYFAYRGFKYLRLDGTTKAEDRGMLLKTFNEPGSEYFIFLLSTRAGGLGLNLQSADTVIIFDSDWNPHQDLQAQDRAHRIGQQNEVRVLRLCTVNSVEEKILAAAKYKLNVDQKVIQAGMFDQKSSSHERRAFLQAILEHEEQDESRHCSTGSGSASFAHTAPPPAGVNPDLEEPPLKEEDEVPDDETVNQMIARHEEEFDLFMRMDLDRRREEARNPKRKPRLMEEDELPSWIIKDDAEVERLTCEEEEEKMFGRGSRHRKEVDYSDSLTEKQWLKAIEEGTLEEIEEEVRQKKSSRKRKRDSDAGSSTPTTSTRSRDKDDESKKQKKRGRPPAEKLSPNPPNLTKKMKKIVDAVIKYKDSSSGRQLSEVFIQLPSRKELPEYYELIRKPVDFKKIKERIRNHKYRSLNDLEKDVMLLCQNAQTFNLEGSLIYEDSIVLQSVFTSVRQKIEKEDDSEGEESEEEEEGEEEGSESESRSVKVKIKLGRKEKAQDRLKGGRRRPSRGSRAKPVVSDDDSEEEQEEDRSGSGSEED
Experimental: Procedure: A stable HeLa cell line expressing HiBiT-BRM was generated. On day 0, 5000 cells were seeded in 40 μL of media into each well of 384-well cell culture plates. […] Nano-Glo HiBiT Lytic Detection System (Promega N3050) reagent was freshly prepared and 20 ul was added to each well. Upon addition of this LgBit-containing reagent, the HiBiT and LgBiT proteins associate to form the luminescent NanoBiT luciferase. The plates were shaken for 10 minutes at room temperature and the bioluminescence read using an EnVision plate reader (PerkinElmer).
For measurement of BRG1 degradation, a stable HeLa cell line expressing HiBit-BRG1 and LgBit was generated. The same protocol as above was then followed.
(§1) The degradation % was calculated using the following formula: % degradation=100%−100%×(LumSample−LumLC)/(LumHC−LumLC). DMSO treated cells are employed as High Control (HC) and 2 μM of a known BRM/BRG1 degrader standard treated cells are employed as Low Control (LC).

HiBit-BRM fusion protein = molecular target: T2, HiBit-BRM fusion protein (Homo sapiens, UniProt P51531); experiment: HiBiT-BRM cell-based degradation assay (Nano-Glo HiBiT Lytic Detection, 24 h); conditions: HeLa cells expressing HiBiT-BRM; for DC50: read-out: BRM HiBit Degradation IC50; for BRM HiBit Degradation Maximum measured: top dose 30 μM
T2 construct: expressed in transfected cells
T2 sequence (P51531 whole entry, the tested form may be a part): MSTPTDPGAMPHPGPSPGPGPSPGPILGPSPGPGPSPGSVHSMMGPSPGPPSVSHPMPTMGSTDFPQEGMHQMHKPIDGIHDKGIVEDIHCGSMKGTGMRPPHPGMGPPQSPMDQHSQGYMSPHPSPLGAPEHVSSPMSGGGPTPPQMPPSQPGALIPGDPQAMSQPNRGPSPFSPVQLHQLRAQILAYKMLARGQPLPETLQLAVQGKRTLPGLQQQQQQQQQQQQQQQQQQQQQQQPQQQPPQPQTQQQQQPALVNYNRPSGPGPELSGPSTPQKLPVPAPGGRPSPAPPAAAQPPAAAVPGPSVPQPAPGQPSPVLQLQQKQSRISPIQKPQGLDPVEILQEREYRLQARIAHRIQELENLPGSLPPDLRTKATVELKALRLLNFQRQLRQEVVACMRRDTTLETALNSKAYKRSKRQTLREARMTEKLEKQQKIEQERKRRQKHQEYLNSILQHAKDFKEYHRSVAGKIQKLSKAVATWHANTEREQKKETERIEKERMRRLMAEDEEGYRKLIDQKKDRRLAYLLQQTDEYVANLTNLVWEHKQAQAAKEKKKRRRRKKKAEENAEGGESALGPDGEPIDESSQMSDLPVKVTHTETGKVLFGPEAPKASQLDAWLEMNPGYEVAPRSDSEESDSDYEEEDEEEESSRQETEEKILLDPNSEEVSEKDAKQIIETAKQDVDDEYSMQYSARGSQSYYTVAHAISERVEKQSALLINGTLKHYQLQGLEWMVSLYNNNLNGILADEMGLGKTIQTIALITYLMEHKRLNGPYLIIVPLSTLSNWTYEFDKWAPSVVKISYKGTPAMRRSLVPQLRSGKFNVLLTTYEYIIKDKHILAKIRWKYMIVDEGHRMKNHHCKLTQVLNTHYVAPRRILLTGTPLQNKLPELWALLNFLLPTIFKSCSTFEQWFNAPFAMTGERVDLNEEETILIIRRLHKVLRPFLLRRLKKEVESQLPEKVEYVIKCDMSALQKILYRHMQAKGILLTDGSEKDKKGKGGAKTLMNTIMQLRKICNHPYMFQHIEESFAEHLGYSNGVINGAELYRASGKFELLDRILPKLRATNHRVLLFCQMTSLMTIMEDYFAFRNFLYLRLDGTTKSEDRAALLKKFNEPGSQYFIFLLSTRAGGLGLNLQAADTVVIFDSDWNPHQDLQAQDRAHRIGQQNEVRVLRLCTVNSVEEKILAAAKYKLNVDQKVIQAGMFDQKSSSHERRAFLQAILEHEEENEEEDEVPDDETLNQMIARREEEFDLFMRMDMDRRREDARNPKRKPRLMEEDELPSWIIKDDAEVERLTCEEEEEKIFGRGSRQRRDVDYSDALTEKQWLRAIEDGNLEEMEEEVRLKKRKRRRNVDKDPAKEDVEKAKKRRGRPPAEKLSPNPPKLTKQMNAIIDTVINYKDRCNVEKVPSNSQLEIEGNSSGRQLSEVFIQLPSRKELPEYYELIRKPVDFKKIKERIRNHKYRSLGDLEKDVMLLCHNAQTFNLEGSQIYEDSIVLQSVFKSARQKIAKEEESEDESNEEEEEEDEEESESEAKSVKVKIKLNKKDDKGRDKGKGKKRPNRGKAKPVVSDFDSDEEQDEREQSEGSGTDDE
Experimental: Procedure: A stable HeLa cell line expressing HiBiT-BRM was generated. On day 0, 5000 cells were seeded in 40 μL of media into each well of 384-well cell culture plates. On day 1, cells were treated with 120 nL DMSO or 120 nL of 3-fold serially DMSO-diluted compounds (10 points in duplicate with 30 μM as final top dose). Subsequently plates were incubated for 24 h in a standard tissue culture incubator and equilibrated at room temperature for 15 minutes. Nano-Glo HiBiT Lytic Detection System (Promega N3050) reagent was freshly prepared and 20 ul was added to each well. Upon addition of this LgBit-containing reagent, the HiBiT and LgBiT proteins associate to form the luminescent NanoBiT luciferase. The plates were shaken for 10 minutes at room temperature and the bioluminescence read using an EnVision plate reader (PerkinElmer).
as §1

Row | DC50 [1] | Dmax [1] | DC50 (HiBit-BRM fusion protein) | BRM HiBit Degradation Maximum measured (HiBit-BRM fusion protein) | SMILES
1 | 0.1 to 1 µM | > 75% | 0.1 to 1 µM | A (‘A’ = Maximum degradation >75%) | Cc1ncsc1-c1ccc(CNC(=O)[C@@H]2C[C@@H](O)CN2C(=O)[C@@H](NC(=O)CCOCCOCCC(=O)NCc2cccc(-c3cccc(-c4csc(NC(=O)CNC(=O)c5ccn(S(C)(=O)=O)c5)n4)c3)c2)C(C)(C)C)cc1 [Compound 1, N-(2-((4-(3′-((S)-14-((2S,4R)-4-hydroxy-2-((4-(4-methylthiazol-5-yl)benzyl)carbamoyl)pyrrolidine-1-carbonyl)-15,15-dimethyl-3,12-dioxo-6,9-dioxa-2,13-diazahexadecyl)-[1,1′-biphenyl]-3-yl)thiazol-2-yl)amino)-2-oxoethyl)-1-(methylsulfonyl)-1H-pyrrole-3-carboxamide]
2 | > 10 µM | < 50% | > 10 µM | C (‘C’ = Maximum degradation <50%) | CS(=O)(=O)n1ccc(C(=O)NCC(=O)Nc2nc(-c3cccc(-c4ccn(CC(=O)NCCCCCNc5cccc6c5C(=O)N(C5CCC(=O)NC5=O)C6=O)n4)c3)cs2)c1 (stereo not shown) [Compound 2, N-[2-[[4-[3-[1-[2-[5-[[2-(2,6-dioxo-3-piperidyl)-1,3-dioxoisoindolin-4-yl]amino]pentylamino]-2-oxo-ethyl]pyrazol-3-yl]phenyl]thiazol-2-yl]amino]-2-oxo-ethyl]-1-methylsulfonylpyrrole-3-carboxamide]
3 | > 10 µM | < 50% | > 10 µM | C (‘C’ = Maximum degradation <50%) | CS(=O)(=O)n1ccc(C(=O)NCC(=O)Nc2nc(-c3cccc(-c4ccn(CC(=O)NCCOCCOCCNc5cccc6c5C(=O)N(C5CCC(=O)NC5=O)C6=O)n4)c3)cs2)c1 (stereo not shown) [Compound 3, N-[2-[[4-[3-[1-[2-[2-[2-[2-[[2-(2,6-dioxo-3-piperidyl)-1,3-dioxoisoindolin-4-yl]amino]ethoxy]ethoxy]ethylamino]-2-oxo-ethyl]pyrazol-3-yl]phenyl]thiazol-2-yl]amino]-2-oxo-ethyl]-1-methylsulfonyl-pyrrole-3-carboxamide]
4 | > 10 µM | < 50% | > 10 µM | C (‘C’ = Maximum degradation <50%) | CS(=O)(=O)n1ccc(C(=O)NCC(=O)Nc2nc(-c3cccc(-c4ccn(CC(=O)N5CCC(C6CCN(C(=O)COc7cccc8c7C(=O)N(C7CCC(=O)NC7=O)C8=O)CC6)CC5)n4)c3)cs2)c1 (stereo not shown) [Compound 4, N-[2-[[4-[3-[1-[2-[4-[1-[2-[2-(2,6-dioxo-3-piperidyl)-1,3-dioxoisoindolin-4-yl]oxyacetyl]-4-piperidyl]-1-piperidyl]-2-oxo-ethyl]pyrazol-3-yl]phenyl]thiazol-2-yl]amino]-2-oxo-ethyl]-1-methylsulfonyl-pyrrole-3-carboxamide]
5 | > 10 µM | < 50% | > 10 µM | C (‘C’ = Maximum degradation <50%) | CS(=O)(=O)n1ccc(C(=O)NCC(=O)Nc2nc(-c3cccc(-c4ccn(CC(=O)NCCCCCCCCNC(=O)COc5cccc6c5C(=O)N(C5CCC(=O)NC5=O)C6=O)n4)c3)cs2)c1 (stereo not shown) [Compound 5, N-[2-[[4-[3-[1-[2-[8-[[2-[2-(2,6-dioxo-3-piperidyl)-1,3-dioxoisoindolin-4-yl]oxyacetyl]amino]octylamino]-2-oxo-ethyl]pyrazol-3-yl]phenyl]thiazol-2-yl]amino]-2-oxo-ethyl]-1-methylsulfonyl-pyrrole-3-carboxamide]
6 | > 10 µM | < 50% | > 10 µM | C (‘C’ = Maximum degradation <50%) | CC(C)(C(=O)NCCOCCOCCNc1cccc2c1C(=O)N(C1CCC(=O)NC1=O)C2=O)n1ccc(-c2cccc(-c3csc(NC(=O)CNC(=O)c4ccn(S(C)(=O)=O)c4)n3)c2)n1 (stereo not shown) [Compound 6, N-(2-((4-(3-(1-(1-((2-(2-(2-((2-(2,6-dioxopiperidin-3-yl)-1,3-dioxoisoindolin-4-yl)amino)ethoxy)ethoxy)ethyl)amino)-2-methyl-1-oxopropan-2-yl)-1H-pyrazol-3-yl)phenyl)thiazol-2-yl)amino)-2-oxoethyl)-1-(methylsulfonyl)-1H-pyrrole-3-carboxamide]
7 | > 10 µM | < 50% | > 10 µM | C (‘C’ = Maximum degradation <50%) | CC(C)(C(=O)NCCCCCNc1cccc2c1C(=O)N(C1CCC(=O)NC1=O)C2=O)n1ccc(-c2cccc(-c3csc(NC(=O)CNC(=O)c4ccn(S(C)(=O)=O)c4)n3)c2)n1 (stereo not shown) [Compound 7, N-[2-[[4-[3-[1-[2-[5-[[2-(2,6-dioxo-3-piperidyl)-1,3-dioxo-isoindolin-4-yl]amino]pentylamino]-1,1-dimethyl-2-oxo-ethyl]pyrazol-3-yl]phenyl]thiazol-2-yl]amino]-2-oxo-ethyl]-1-methylsulfonyl-pyrrole-3-carboxamide]
8 | > 10 µM | < 50% | > 10 µM | C (‘C’ = Maximum degradation <50%) | CN(CC(=O)NCCOCCOCCNc1cccc2c1C(=O)N(C1CCC(=O)NC1=O)C2=O)c1cc(-c2cccc(-c3csc(NC(=O)CNC(=O)c4ccn(S(C)(=O)=O)c4)n3)c2)ccn1 (stereo not shown) [Compound 9, N-(2-((4-(3-(2-((2-((2-(2-(2-((2-(2,6-dioxopiperidin-3-yl)-1,3-dioxoisoindolin-4-yl)amino)ethoxy)ethoxy)ethyl)amino)-2-oxoethyl)(methyl)amino)pyridin-4-yl)phenyl)thiazol-2-yl)amino)-2-oxoethyl)-1-(methylsulfonyl)-1H-pyrrole-3-carboxamide]
9 | > 10 µM | < 50% | > 10 µM | C (‘C’ = Maximum degradation <50%) | CC(C)(C(=O)N1CCC(C2CCN(C(=O)COc3cccc4c3C(=O)N(C3CCC(=O)NC3=O)C4=O)CC2)CC1)n1ccc(-c2cccc(-c3csc(NC(=O)CNC(=O)c4ccn(S(C)(=O)=O)c4)n3)c2)n1 (stereo not shown) [Compound 10, N-[2-[[4-[3-[1-[2-[4-[1-[2-[2-(2,6-dioxo-3-piperidyl)-1,3-dioxo-isoindolin-4-yl]oxyacetyl]-4-piperidyl]-1-piperidyl]-1,1-dimethyl-2-oxo-ethyl]pyrazol-3-yl]phenyl]thiazol-2-yl]amino]-2-oxo-ethyl]-1-methylsulfonylpyrrole-3-carboxamide]
10 | 1 to 10 µM | 50 to 75% | > 10 µM | C (‘C’ = Maximum degradation <50%) | CS(=O)(=O)n1ccc(C(=O)NCC(=O)Nc2nc(-c3cccc(-c4ccnc(C5(C(=O)NCCOCCOCCNc6cccc7c6C(=O)N(C6CCC(=O)NC6=O)C7=O)CC5)c4)c3)cs2)c1 (stereo not shown) [Compound 11, N-[2-[[4-[3-[2-[1-[2-[2-[2-[[2-(2,6-dioxo-3-piperidyl)-1,3-dioxo-isoindolin-4-yl]amino]ethoxy]ethoxy]ethylcarbamoyl]cyclopropyl]-4-pyridyl]phenyl]thiazol-2-yl]amino]-2-oxo-ethyl]-1-methylsulfonylpyrrole-3-carboxamide]
11 | 0.1 to 1 µM | > 75% | > 10 µM | C (‘C’ = Maximum degradation <50%) | CS(=O)(=O)n1ccc(C(=O)NCC(=O)Nc2nc(-c3cccc(-c4ccnc(C5(C(=O)NCCCCCNc6cccc7c6C(=O)N(C6CCC(=O)NC6=O)C7=O)CC5)c4)c3)cs2)c1 (stereo not shown) [Compound 12, N-(2-((4-(3-(2-(1-((5-((2-(2,6-dioxopiperidin-3-yl)-1,3-dioxoisoindolin-4-yl)amino)pentyl)carbamoyl)cyclopropyl)-pyridin-4-yl)phenyl)thiazol-2-yl)amino)-2-oxoethyl)-1-(methylsulfonyl)-1H-pyrrole-3-carboxamide]
12 | – | > 75% | – | – | Cc1ncsc1-c1ccc(CNC(=O)[C@@H]2C[C@@H](O)CN2C(=O)[C@@H](NC(=O)CCCCCCCCCCCC(=O)NCc2cccc(-c3cccc(-c4csc(NC(=O)CNC(=O)c5ccn(S(C)(=O)=O)c5)n4)c3)c2)C(C)(C)C)cc1 [Compound 114]

Row | SMILES | DC50 [1] | Dmax [1] | DC50 (HiBit-BRM fusion protein) | BRM HiBit Degradation Maximum measured (HiBit-BRM fusion protein)
13 | CC(C)(C(=O)NCCCCCCCCNC(=O)COc1cccc2c1C(=O)N(C1CCC(=O)NC1=O)C2=O)n1ccc(-c2cccc(-c3csc(NC(=O)CNC(=O)c4ccn(S(C)(=O)=O)c4)n3)c2)n1 (stereo not shown) [Compound 8, N-(2-((4-(3-(1-(1-((8-(2-((2-(2,6-dioxopiperidin-3-yl)-1,3-dioxoisoindolin-4-yl)oxy)acetamido)octyl)amino)-2-methyl-1-oxopropan-2-yl)-1H-pyrazol-3-yl)phenyl)thiazol-2-yl)amino)-2-oxoethyl)-1-(methylsulfonyl)-1H-pyrrole-3-carboxamide] | 0.1 to 1 µM | 50 to 75% | 0.1 to 1 µM | B (‘B’ = Maximum degradation ≥50% and ≤75%)
